In PMC7383509 (Clinical Pharmacology in Drug Development, 2019):
Where “and” joins values, the source holds several entries; their conditions need not be identical. Equal entries are not always repeated. Where two headings read alike, the source gives them in different places.

Legend:
[1] = human plasma; cited from earlier work
[2] = format: in vivo, human; details: for AUC / clearance / Cmax / Vd / half-life: 0.5 mg, single 0.5 mg IV; for AUC: AUC0‐t; for AUC / Cmax: dose-normalized to 1 mg; for clearance: CL; for Vd: Vz; for half-life: t½
[3] = Hepatic impairment study: safety and tolerability; format: in vivo, human
[4] = format: in vivo, human; details: for Tmax / AUC / clearance / Cmax / Vd / half-life: human, plasma, iv; for AUC: AUC0‐t; for AUC / clearance / Cmax / Vd / half-life: ESRD subjects, single 0.5 mg IV; for AUC / Cmax: dose-normalized to 1 mg; for clearance: CL; for Vd: Vz; for half-life: t½
[5] = cited from earlier work
[6] = Renal impairment study: safety and tolerability; format: in vivo, human
μ receptor = details: major metabolites of oliceridine; ref data on file; cited from earlier work
[7] = human, plasma, iv, arithmetic mean ± SD, mild hepatic impairment
[8] = human, plasma, iv, arithmetic mean ± SD, moderate hepatic impairment
[9] = human, plasma, iv, arithmetic mean ± SD, severe hepatic impairment
[10] = human, plasma, iv, geometric mean (%CVb), severe hepatic impairment
[11] = human, plasma, iv, geometric mean (%CVb), mild hepatic impairment
[12] = human, plasma, iv, geometric mean (%CVb), moderate hepatic impairment
[13] = mild hepatic impairment, 0.5 mg IV, 10 subjects
[14] = moderate hepatic impairment, 0.5 mg IV, 10 subjects
[15] = severe hepatic impairment, 0.5 mg IV, 6 subjects
[16] = ESRD subjects/healthy subjects, ANCOVA
[17] = ESRD subjects/healthy subjects, ANCOVA, dose-adjusted

COc1ccsc1CNCC[C@@]1(c2ccccn2)CCOC2(CCCC2)C1 [Oliceridine]
Free fraction [1]: 23% | CL, GM ratio Mild:Healthy (90%CI) ([2]; ANOVA): 1.05 (0.77, 1.43) | CL, GM ratio Moderate:Healthy (90%CI) ([2]; ANOVA): 0.80 (0.59, 1.09) | CL, GM ratio Severe:Healthy (90%CI) ([2]; ANOVA): 0.99 (0.71, 1.38) | t½, GM ratio Mild:Healthy (90%CI) ([2]; ANOVA): 1.26 (0.96, 1.66) | t½, GM ratio Moderate:Healthy (90%CI) ([2]; ANOVA): 2.09 (1.59, 2.75) | AUC0‐t, GM ratio Mild:Healthy (90%CI) ([2]; dose-normalized, ANOVA): 0.93 (0.68, 1.28) | AUC0‐∞, GM ratio Mild:Healthy (90%CI) ([2]; dose-normalized, ANOVA): 0.95 (0.70, 1.29) | AUC0‐∞, GM ratio Moderate:Healthy (90%CI) ([2]; dose-normalized, ANOVA): 1.25 (0.92, 1.70) | AUC0‐∞, GM ratio Severe:Healthy (90%CI) ([2]; dose-normalized, ANOVA): 1.01 (0.72, 1.41) | Cmax, GM ratio Mild:Healthy (90%CI) ([2]; dose-normalized, ANOVA): 1.19 (0.54, 2.60) | Cmax, GM ratio Moderate:Healthy (90%CI) ([2]; dose-normalized, ANOVA): 1.20 (0.55, 2.62) | Cmax, GM ratio Severe:Healthy (90%CI) ([2]; dose-normalized, ANOVA): 0.24 (0.10, 0.56) | AUC [2, 7]: 23.3 ± 7.9 ng·h/mL | AUC [2, 8]: 29.9 ± 11.3 ng·h/mL | AUC [2, 9]: 23.4 ± 10.3 ng·h/mL | AUC [2, 10]: 21.8 ng·h/mL | clearance [2, 7]: 807 mL/min | clearance [2, 8]: 595 mL/min | clearance [2, 9]: 738 mL/min | clearance [2, 11]: 742 mL/min | clearance [2, 12]: 565 mL/min | clearance [2, 10]: 697 mL/min | Cmax [2, 7]: 62.3 ± 48.8 ng/mL | Cmax [2, 8]: 46.6 ± 19.4 ng/mL | Cmax [2, 9]: 11.9 ± 10.6 ng/mL | Cmax [2, 11]: 41.4 ng/mL | Cmax [2, 12]: 41.9 ng/mL | Cmax [2, 10]: 8.4 ng/mL | Vd [2, 7]: 181 ± 81.2 L | Vd [2, 8]: 215 ± 39.1 L | Vd [2, 9]: 370 ± 130 L | Vd [2, 11]: 167 L | Vd [2, 12]: 212 L | Vd [2, 10]: 348 L | half-life [2, 7]: 162 ± 31.8 min | half-life [2, 8]: 282 ± 126 min | half-life [2, 9]: 378 ± 156 min | half-life [2, 11]: 156 min | half-life [2, 12]: 258 min | half-life [2, 10]: 348 min | AUC(0-t) ([2]; human, plasma, iv, 1 mg): 24.1 ± 7.5 ng·h/mL | At least 1 TEAE, no. of events ([3]; healthy, 1 mg IV, 8 subjects): 0 no. of events | Somnolence, no. of events ([3]; healthy, 1 mg IV, 8 subjects): 0 no. of events | Somnolence, subjects ([3]; healthy, 1 mg IV, 8 subjects): 0 (0%) n (%) | Subjects with TEAEs by maximum severity: Mild ([3]; healthy, 1 mg IV, 8 subjects): 0 (0%) n (%) | Subjects with TEAEs by maximum severity: Moderate ([3]; healthy, 1 mg IV, 8 subjects): 0 | Subjects with TEAEs by maximum severity: Severe ([3]; healthy, 1 mg IV, 8 subjects): 0 | Subjects with at least 1 TEAE ([3]; healthy, 1 mg IV, 8 subjects): 0 (0%) n (%) | TEAEs by maximum severity: Mild, no. of events ([3]; healthy, 1 mg IV, 8 subjects): 0 no. of events | Duration of somnolence TEAEs ([3]; mild hepatic impairment group, mild intensity, resolved completely): approximately 1 hour | At least 1 TEAE, no. of events [3, 13]: 2 no. of events | Somnolence, no. of events [3, 13]: 2 no. of events | Somnolence, subjects [3, 13]: 2 n (%) and 2 (20%) n (%) | Subjects with TEAEs by maximum severity: Mild [3, 13]: 2 (20%) n (%) | Subjects with TEAEs by maximum severity: Moderate [3, 13]: 0 | Subjects with TEAEs by maximum severity: Severe [3, 13]: 0 | Subjects with at least 1 TEAE [3, 13]: 2 (20%) n (%) | TEAEs by maximum severity: Mild, no. of events [3, 13]: 2 no. of events | At least 1 TEAE, no. of events [3, 14]: 0 no. of events | Somnolence, no. of events [3, 14]: 0 no. of events | Somnolence, subjects [3, 14]: 0 (0%) n (%) | Subjects with TEAEs by maximum severity: Mild [3, 14]: 0 (0%) n (%) | Subjects with TEAEs by maximum severity: Moderate [3, 14]: 0 | Subjects with TEAEs by maximum severity: Severe [3, 14]: 0 | Subjects with at least 1 TEAE [3, 14]: 0 (0%) n (%) | TEAEs by maximum severity: Mild, no. of events [3, 14]: 0 no. of events | At least 1 TEAE, no. of events [3, 15]: 0 no. of events | Somnolence, no. of events [3, 15]: 0 no. of events | Somnolence, subjects [3, 15]: 0 (0%) n (%) | Subjects with TEAEs by maximum severity: Mild [3, 15]: 0 (0%) n (%) | Subjects with TEAEs by maximum severity: Moderate [3, 15]: 0 | Subjects with TEAEs by maximum severity: Severe [3, 15]: 0 | Subjects with at least 1 TEAE [3, 15]: 0 (0%) n (%) | TEAEs by maximum severity: Mild, no. of events [3, 15]: 0 no. of events | CL, ratio of geometric means [4, 16]: 81.2 | t½, ratio of geometric means [4, 16]: 128 | AUC0‐t, ratio of geometric means [4, 17]: 108 | AUC0‐∞, ratio of geometric means [4, 17]: 123 | Cmax, ratio of geometric means [4, 17]: 113 | Tmax ([4]; 0.5 mg): 15 min | AUC ([4]; 0.5 mg, arithmetic mean (SD)): 19.7 ng·h/mL | AUC ([4]; 0.5 mg, geometric mean (%CVb)): 19.1 ng·h/mL | clearance ([4]; 0.5 mg, arithmetic mean (SD)): 847 mL/min | clearance ([4]; 0.5 mg, geometric mean (%CVb)): 820 mL/min | Cmax ([4]; 0.5 mg, arithmetic mean (SD)): 9.96 ng/mL | Cmax ([4]; 0.5 mg, geometric mean (%CVb)): 9.87 ng/mL | Vd ([4]; 0.5 mg, arithmetic mean (SD)): 219 L | Vd ([4]; 0.5 mg, geometric mean (%CVb)): 212 L | half-life ([4]; 0.5 mg, arithmetic mean (SD)): 187 min | half-life ([4]; 0.5 mg, geometric mean (%CVb)): 179 min | Tmax ([4]; 1 mg): 15 min | Share of the metabolites eliminated in the urine ([5]; remainder eliminated in the feces): Approximately 70% | At least 1 TEAE, no. of events ([6]; ESRD, 0.5 mg IV, 9 subjects): 2 no. of events | Dizziness, subjects ([6]; ESRD, 0.5 mg IV, 9 subjects): 0 | Euphoria, subjects ([6]; ESRD, 0.5 mg IV, 9 subjects): 0 | Fatigue, no. of events ([6]; ESRD, 0.5 mg IV, 9 subjects): 1 no. of events | Fatigue, subjects ([6]; ESRD, 0.5 mg IV, 9 subjects): 1 (11%) n (%) | Feeling of relaxation, subjects ([6]; ESRD, 0.5 mg IV, 9 subjects): 0 | Headache, subjects ([6]; ESRD, 0.5 mg IV, 9 subjects): 0 | Nausea, no. of events ([6]; ESRD, 0.5 mg IV, 9 subjects): 1 no. of events | Nausea, subjects ([6]; ESRD, 0.5 mg IV, 9 subjects): 1 (11%) n (%) | Pain in extremity, subjects ([6]; ESRD, 0.5 mg IV, 9 subjects): 0 | Subjects with TEAEs by maximum severity: Mild ([6]; ESRD, 0.5 mg IV, 9 subjects): 2 (22%) n (%) | Subjects with TEAEs by maximum severity: Moderate ([6]; ESRD, 0.5 mg IV, 9 subjects): 0 | Subjects with TEAEs by maximum severity: Severe ([6]; ESRD, 0.5 mg IV, 9 subjects): 0 | Subjects with at least 1 TEAE ([6]; ESRD, 0.5 mg IV, 9 subjects): 2 (22%) n (%) | TEAEs by maximum severity: Mild, no. of events ([6]; ESRD, 0.5 mg IV, 9 subjects): 2 no. of events | Total number of mild TEAEs, overall ([6]; all 17 subjects of the renal study): 11 | Subjects who experienced TEAEs, overall ([6]; all subjects of the renal study (6 of 17)): 35.3% | Dizziness, no. of events ([6]; healthy, 1 mg IV, 8 subjects): 1 no. of events | Dizziness, subjects ([6]; healthy, 1 mg IV, 8 subjects): 1 (12.5%) n (%) | Euphoria, no. of events ([6]; healthy, 1 mg IV, 8 subjects): 2 no. of events | Euphoria, subjects ([6]; healthy, 1 mg IV, 8 subjects): 2 (25%) n (%) | Fatigue, no. of events ([6]; healthy, 1 mg IV, 8 subjects): 2 no. of events | Fatigue, subjects ([6]; healthy, 1 mg IV, 8 subjects): 2 (25%) n (%) | Feeling of relaxation, no. of events ([6]; healthy, 1 mg IV, 8 subjects): 1 no. of events | Feeling of relaxation, subjects ([6]; healthy, 1 mg IV, 8 subjects): 1 (12.5%) n (%) | Headache, no. of events ([6]; healthy, 1 mg IV, 8 subjects): 1 no. of events | Headache, subjects ([6]; healthy, 1 mg IV, 8 subjects): 1 (12.5%) n (%) | Nausea, no. of events ([6]; healthy, 1 mg IV, 8 subjects): 3 no. of events | Nausea, subjects ([6]; healthy, 1 mg IV, 8 subjects): 2 (25%) n (%) | Pain in extremity, no. of events ([6]; healthy, 1 mg IV, 8 subjects): 1 no. of events | Pain in extremity, subjects ([6]; healthy, 1 mg IV, 8 subjects): 1 (12.5%) n (%) | Subjects with TEAEs by maximum severity: Mild ([6]; healthy, 1 mg IV, 8 subjects): 4 (50%) n (%) | Subjects with TEAEs by maximum severity: Moderate ([6]; healthy, 1 mg IV, 8 subjects): 0 | Subjects with TEAEs by maximum severity: Severe ([6]; healthy, 1 mg IV, 8 subjects): 0 | TEAEs by maximum severity: Mild, no. of events ([6]; healthy, 1 mg IV, 8 subjects): 9 no. of events

NCC[C@@]1(c2ccccn2)CCOC2(CCCC2)C1 [TRV0109662]
Share of total by AUC ([5]; major metabolite of oliceridine): ≥ 10% | Share of total drug‐related material ([5]; major metabolite of oliceridine, ref data on file): 17% | Activity at the μ receptor (μ receptor): inactive
